{"source": "patent US4983636A", "about": "“Composition and method of treating selected malignant conditions” (Rikagaku Kenkyusho Wako, priority 1976, dated 1991)", "key": {"[1]": {"test_system": "Escherichia coli", "assay": "influence on uptake of amino acids and nucleic acid bases by Escherichia coli (incl. time course, FIGS. 1 and 2)", "conditions": "in words", "procedure": "(§1) In the Table, \"glucose\" was added as an energy source for cells in which propagation had been terminated and \"CM\" (Chloramphenicol) was added so as to terminate propagation of cells. […] Separately, instead of this composition of the foregoing additives, a composition comprising glucose, CM, 14C-substrate and colistin was added and cells were similarly obtained. The colistin was added for a comparison system to the Ba-added system because colistin is a permeation inhibitor for cell membranes (antibiotic substance)."}, "[2]": {"test_system": "Ehrlich carcinoma", "assay": "Test 4: survival effect, intraperitoneally implanted Ehrlich carcinoma (FIG. 4)", "format": "in vivo, mice of RFVL", "conditions": "10 days", "procedure": "Ten mice of RFVL which were 4 to 5 weeks old were used as the test animals and about 10^6 cells/0.2 ml of Ehrlich carcinoma were implanted intraperitoneally.\nIn FIG. 4, the suspension was administered at doses of 25, 50 and 100 mg/Kg/day to treated groups and the 0.85% biological sodium chloride solution alone was administered to a control group. Parenthesized values shown for each group are average values of the number of living days and the survival ratio."}, "[3]": {"test_system": "lymphosarcoma", "assay": "effect against lymphosarcoma", "conditions": "in words"}, "[4]": {"test_system": "E. coli W3110", "assay": "uptake of 14C-substrate (thymine, adenine, glutamic acid, alanine) by E. coli W3110", "conditions": "for adenine incorporation / alanine incorporation / glutamic acid incorporation / thymine incorporation: E. coli W3110", "procedure": "as §1\n(§2) In Table 2, the value of each numerator means a value measured by a scintillation counter and the value of each denominator means a ratio (%) to the value of the control (100%)."}, "[5]": {"test_system": "Ehrlich carcinoma", "assay": "Test 3: tumor weight, subcutaneously implanted Ehrlich carcinoma (solid tumor)", "format": "in vivo, mice of RFVL", "procedure": "Ten mice of RFVL which were 4 to 5 weeks old were used as the experiemental animals, and about 10^6 cells/0.2 ml of Ehrlich carcinoma were implanted subcutaneously at the right armpit. […] This treatment was continued for 9 days. On the 11th day from the tumor implantation, the tumor weight was measured with respect to each group to obtain results shown in Table 5. In each of control and treated groups, the increase of the body weight in the tested mice during the test was 3.5 g as the average value determined on 10 mice."}, "[6]": {"test_system": "tumor cells of mice", "assay": "control of tumor cells of mice", "conditions": "in words"}, "[7]": {"test_system": "Escherichia coli", "assay": "outflow of incorporated substrates from Escherichia coli cells (FIG. 3)", "conditions": "FIG. 3, in words"}, "[8]": {"test_system": "E. coli S", "assay": "uptake of 14C-substrate (tryptophane) by E. coli S", "conditions": "for tryptophane incorporation: E. coli S", "procedure": "as §1, §2"}, "[9]": {"assay": "excretion from the living body", "format": "in vivo", "conditions": "in words"}, "[10]": {"test_system": "malignant cells of adenomatous carcinoma, squamous cell carninoma, sarcoma and the like, especially undifferentiated tumors", "assay": "clinical experiments, sensitivity of malignant cells", "format": "in vivo, human", "conditions": "in words", "source_text": "(§3) In general, Ehrlich ascites tumor is highly sensitive to conventional carcinostatic agents of cytotoxic type, and Ehrlich solid tumor is relatively lowly sensitive to most of these known carcinostatic agents. […] Thus, the composition of the present invention is very unique in the point that it is efficacious against a broadrange of carcinomatous diseases."}, "[11]": {"test_system": "Adeno-carcinoma 755", "assay": "Test 2: tumor weight, Adeno-carcinoma 755, intraperitoneal benzaldehyde", "format": "in vivo, mice (first filial generation of C57BL/6 and DBA/2)", "conditions": "11th day", "procedure": "(§4) As the experimental animal, there were used four mice of the first filial generation of C57BL/6 and DBA/2, which were 6 to 7 weeks old. A carcinoma (Adeno-carcinoma 755) was implanted on the hypoderm in the back by using an implanting needle. […] This treatment was conduced once a day for 9 days. On the 11th day from the implantation, the weight of the tumor was measured with respect to each group to obtain the results shown in Table 3.\nThe treatment was continued for 9 days. On the 11th day from the implantation, the tumor weight was measured with respect to each group to obtain results shown in Table 4."}, "[12]": {"test_system": "Adeno-carcinoma 755", "assay": "Test 1: tumor weight, subcutaneously implanted Adeno-carcinoma 755", "format": "in vivo, mice (first filial generation of C57BL/6 and DBA/2)", "conditions": "11th day", "procedure": "as §4"}, "[13]": {"assay": "continuous administration for 10 days, toxicity", "format": "in vivo", "source_text": "as §3"}}, "note": "Values joined by “and” are separate entries in the source; they are usually repeats but may differ in a detail not shown here. Identical values can stand only once. “Also recorded” adds a separate entry of the source.", "data": [{"compound": "O=Cc1ccccc1", "note": "[benzaldehyde]", "values": [{"measurement": "influence on uptake of nucleic acids and other amino acids", "setting": "[1]; substrates other than tryptophane", "value": "incorporation of nucleic acids and other amino acids is inhibited; also recorded: exerts an uptake inhibiting action in the case of other substrates"}, {"measurement": "influence on uptake of tryptophane", "setting": "[1]; tryptophane", "value": "the incorporation is promoted; also recorded: the uptake of tryptophane increases with the lapse of time; also recorded: specifically promotes the uptake of tryptophane among substrates"}, {"measurement": "survival effect", "setting": "[2]; 50 mg/Kg per day i.p.", "value": 15.4, "unit": "%"}, {"measurement": "survival effect", "setting": "[2]; 100 mg/Kg per day i.p.", "value": 26.9, "unit": "%"}, {"measurement": "effect against lymphosarcoma", "setting": "[3]", "value": "effective against lymphosarcoma"}, {"measurement": "adenine incorporation", "setting": "[4]; adenine, benzaldehyde 10^-1 PPM", "value": 3135, "unit": "CPM"}, {"measurement": "adenine incorporation", "setting": "[4]; adenine, benzaldehyde 10^-2 PPM", "value": 3684, "unit": "CPM"}, {"measurement": "adenine incorporation", "setting": "[4]; adenine, benzaldehyde 10^-3 PPM", "value": 4246, "unit": "CPM"}, {"measurement": "alanine incorporation", "setting": "[4]; alanine, benzaldehyde 10^-1 PPM", "value": 5283, "unit": "CPM"}, {"measurement": "alanine incorporation", "setting": "[4]; alanine, benzaldehyde 10^-2 PPM", "value": 5438, "unit": "CPM"}, {"measurement": "alanine incorporation", "setting": "[4]; alanine, benzaldehyde 10^-3 PPM", "value": 5838, "unit": "CPM"}, {"measurement": "glutamic acid incorporation", "setting": "[4]; glutamic acid, benzaldehyde 10^-1 PPM", "value": 2842, "unit": "CPM"}, {"measurement": "glutamic acid incorporation", "setting": "[4]; glutamic acid, benzaldehyde 10^-2 PPM", "value": 2779, "unit": "CPM"}, {"measurement": "glutamic acid incorporation", "setting": "[4]; glutamic acid, benzaldehyde 10^-3 PPM", "value": 3203, "unit": "CPM"}, {"measurement": "thymine incorporation", "setting": "[4]; thymine, benzaldehyde 10^-1 PPM", "value": 1399, "unit": "CPM"}, {"measurement": "thymine incorporation", "setting": "[4]; thymine, benzaldehyde 10^-2 PPM", "value": 1566, "unit": "CPM"}, {"measurement": "thymine incorporation", "setting": "[4]; thymine, benzaldehyde 10^-3 PPM", "value": 1891, "unit": "CPM"}, {"measurement": "increase of the body weight during the test (average)", "setting": "[5]; 10 mg/Kg i.p. for 9 days, 10 mice, same in control group", "value": 3.5, "unit": "g"}, {"measurement": "Average Weight (tumor)", "setting": "[5]; 10 mg/Kg i.p. for 9 days, 11th day, control 2.79 g", "value": 1.24, "unit": "g"}, {"measurement": "Tumor Weight", "setting": "[5]; individual animal, 10 mg/Kg i.p. once a day for 9 days, 11th day, 10 mg/kg", "value": "3.8 g and 2.4 g and 2.2 g and 0.8 g and 0.6 g and 0.5 g and 0.4 g and 0.3 g"}, {"measurement": "effect on Ehrlich solid tumor", "setting": "[5]; solid versus ascites tumor, in words", "value": "acts strongly on the solid tumor rather than the ascites tumor; also recorded: prominent effect on Erlich solid tumor"}, {"measurement": "control of tumor cells of mice", "setting": "[6]", "value": "effective for controlling tumor cells of mice"}, {"measurement": "damage to cell membranes", "setting": "[7]", "value": "causes no damage to cell membranes"}, {"measurement": "outflow of incorporated substrate", "setting": "[7]", "value": "outflow of the substrate is remarkably reduced and is not changed from outflow of the substrate in the control system"}, {"measurement": "tryptophane incorporation", "setting": "[8]; benzaldehyde 10^-1 PPM", "value": 1076, "unit": "CPM"}, {"measurement": "tryptophane incorporation", "setting": "[8]; benzaldehyde 10^-2 PPM", "value": 915, "unit": "CPM"}, {"measurement": "tryptophane incorporation", "setting": "[8]; benzaldehyde 10^-3 PPM", "value": 808, "unit": "CPM"}, {"measurement": "excretion from the living body", "setting": "[9]", "value": "promptly excreted from the living body; also recorded: promptly extracted from living bodies"}, {"measurement": "sensitivity of malignant cells", "setting": "[10]", "value": "highly sensitive to benzaldehyde"}, {"measurement": "Average Weight (tumor)", "setting": "[11]; 3.5% suspension 0.1 ml i.p. for 9 days, control 5.90 g", "value": 3.55, "unit": "g"}, {"measurement": "Tumor Weight", "setting": "[11]; individual animal, 3.5% suspension 0.1 ml i.p. once a day for 9 days", "value": "3.3 g and 3.4 g and 4.0 g and 3.5 g"}, {"measurement": "Average Weight (tumor)", "setting": "[12]; 10 ppm suspension s.c. for 9 days, control 5.8 g", "value": 3.8, "unit": "g"}, {"measurement": "Tumor Weight", "setting": "[12]; individual animal, 10 ppm suspension 0.5 to 1.0 ml s.c. once a day for 9 days", "value": "4.6 g and 2.6 g and 4.1 g"}, {"measurement": "daily dose without bad influences such as toxicity on the host", "setting": "[13]; administered continuously for 10 days", "value": "up to 200 mg/Kg"}, {"measurement": "NOAEL at 240 h", "setting": "[13]; in vivo, ip, continuous intraperitoneal injection for 10 days, read-out: daily dose at which no toxicity is observed", "value": "≥ 200", "unit": "mg/kg/day"}, {"measurement": "side effects", "setting": "[13]; in words", "value": "causes no side effects"}]}, {"compound": "colistin [reference compound]", "values": [{"measurement": "adenine incorporation", "setting": "[4]; adenine, colistin 5 PPM", "value": 1066, "unit": "CPM"}, {"measurement": "adenine incorporation, ratio (%) to the control", "setting": "[4]; adenine, colistin 5 PPM, control 100%", "value": 23, "unit": "%"}, {"measurement": "alanine incorporation", "setting": "[4]; alanine, colistin 5 PPM", "value": 1009, "unit": "CPM"}, {"measurement": "alanine incorporation, ratio (%) to the control", "setting": "[4]; alanine, colistin 5 PPM, control 100%", "value": 17, "unit": "%"}, {"measurement": "glutamic acid incorporation", "setting": "[4]; glutamic acid, colistin 5 PPM", "value": 670, "unit": "CPM"}, {"measurement": "glutamic acid incorporation, ratio (%) to the control", "setting": "[4]; glutamic acid, colistin 5 PPM, control 100%", "value": 16, "unit": "%"}, {"measurement": "thymine incorporation", "setting": "[4]; thymine, colistin 5 PPM", "value": 333, "unit": "CPM"}, {"measurement": "thymine incorporation, ratio (%) to the control", "setting": "[4]; thymine, colistin 5 PPM, control 100%", "value": 16, "unit": "%"}, {"measurement": "damage to cell membranes", "setting": "[7]", "value": "cell membranes are destroyed"}, {"measurement": "outflow of incorporated substrate", "setting": "[7]", "value": "outflow of the substrate is extreme"}, {"measurement": "tryptophane incorporation", "setting": "[8]; colistin 5 PPM", "value": 439, "unit": "CPM"}, {"measurement": "tryptophane incorporation, ratio (%) to the control", "setting": "[8]; colistin 5 PPM, control 100%", "value": 65, "unit": "%"}]}]}
